Marks after values point to notes of the source that are not given here.
Experiments:
rats [1] = assay: Horizontal locomotor activity after oral administration; assay type: in vivo, Sprague-Dawley rats; set-up: Time of Peak (Counts per 0.2 h): unit not given here; details: rats, oral gavage 6 mg/kg
rats [2] = assay: Locomotor activity after intranasal administration with and without CMC; assay type: in vivo, Sprague-Dawley rats; details: rats, intranasal 1.0 mg/kg, 1 h
From the text: The CMC drug mixtures were suspended thoroughly before each dose was delivered.

rats [3] = assay: Locomotor activity after intravenous administration; assay type: in vivo, Sprague-Dawley rats; details: rat, 1.0 mg/kg
[4] = Intranasal bioavailability (LC/MS/MS); details: rat, intranasal, 3 mg/kg
[5] = Oral bioavailability at escalating doses (LC/MS/MS); details: rat; for AUC0-8 of d-amphetamine / AUCinf of d-amphetamine / F of d-amphetamine / Tmax of d-amphetamine / Cmax of d-amphetamine / AUCinf alt. calc. of d-amphetamine: oral; for Cmax of d-amphetamine: LC/MS/MS; for AUCinf alt. calc. of d-amphetamine: WinNonlin, in ng·h/mL
stimulant abusers = assay: Abuse liability of intravenous L-lysine-d-amphetamine in stimulant abusers; details: d-amphetamine 20 mg
anesthetized dog = assay: Cardiovascular effects following intravenous injection in the anesthetized dog
[6] = IV, L-lysine-d-amphetamine 50 mg

Substance: d-amphetamine
- Peak of activity (Counts per 0.2 h) (rats [1]; 5 h experiment): 291 Counts per 0.2 h
- Time of Last Count Above 200 per 0.2 h (rats [1]; 5 h experiment): 2.6 h
- Time of Peak (Counts per 0.2 h) (rats [1]; 5 h experiment): 0.6
- Total Activity Counts (rats [1]; 5 h experiment): 515
- Total Activity Counts Above Baseline (rats [1]; 5 h experiment): 0
- Peak of activity (Counts per 0.2 h) (rats [1]; 12 h experiment): 223 Counts per 0.2 h
- Time of Last Count Above 200 per 0.2 h (rats [1]; 12 h experiment): 6.4 h
- Time of Peak (Counts per 0.2 h) (rats [1]; 12 h experiment): 0.6
- Total Activity Counts (rats [1]; 12 h experiment): 6622
- Total Activity Counts Above Baseline (rats [1]; 12 h experiment): 5686
- Total Activity Counts (1 h) (rats [2]): 858
- Total Activity Counts Above Baseline (rats [2]): 686
- Total Activity Counts (3 h) (rats [3]): 1659
- Activity above baseline, Percent Amp (rats [3]; 3 h): 100%
- Total Activity Counts Above Baseline (rats [3]; 3 h): 1355
- AUC0-1 of d-amphetamine [4]: 1032 ng·h/mL
- AUCinf of d-amphetamine [4]: 7291 ng·h/mL
- Cmax of d-amphetamine ([4]; LC/MS/MS): 1962.9 ng/mL
- AUCinf alt. calc. of d-amphetamine ([4]; in ng·h/mL): 1,267
- AUC (0-1.5) of d-amphetamine ([5]; in vivo, po, 60 mg/kg): 14,281** ng · h/mL
- AUC0-8 of d-amphetamine ([5]; 3 mg/kg): 885 ng·h/mL
- AUCinf of d-amphetamine ([5]; 3 mg/kg): 921 ng·h/mL
- F of d-amphetamine ([5]; 3 mg/kg): 84%
- Tmax of d-amphetamine ([5]; 3 mg/kg): 90 min
- Cmax of d-amphetamine ([5]; 3 mg/kg): 217.2 ng/mL
- AUCinf alt. calc. of d-amphetamine ([5]; 3 mg/kg): 1,059
- AUC0-8 of d-amphetamine ([5]; 6 mg/kg): 1,319 ng · h/mL
- AUCinf of d-amphetamine ([5]; 6 mg/kg): 1,362 ng · h/mL
- F of d-amphetamine ([5]; 6 mg/kg): 62%
- Tmax of d-amphetamine ([5]; 6 mg/kg): 15 min
- Cmax of d-amphetamine ([5]; 6 mg/kg): 815.3 ng/mL
- AUCinf alt. calc. of d-amphetamine ([5]; 6 mg/kg): 1429
- AUC0-8 of d-amphetamine ([5]; 12 mg/kg): 4,252 ng · h/mL
- AUCinf of d-amphetamine ([5]; 12 mg/kg): 4,428 ng · h/mL
- F of d-amphetamine ([5]; 12 mg/kg): 101%
- Tmax of d-amphetamine ([5]; 12 mg/kg): 15 min
- Cmax of d-amphetamine ([5]; 12 mg/kg): 1,533.1 ng/mL
- AUCinf alt. calc. of d-amphetamine ([5]; 12 mg/kg): 4,636
- AUCinf of d-amphetamine ([5]; 60 mg/kg): 48,707 ng · h/mL
- F of d-amphetamine ([5]; 60 mg/kg): 223%
- Tmax of d-amphetamine ([5]; 60 mg/kg): 60 min
- Cmax of d-amphetamine ([5]; 60 mg/kg): 13,735 ng/mL
- AUCinf alt. calc. of d-amphetamine ([5]; 60 mg/kg): 48,707
- Tmax of d-amphetamine ([5]; […]): 30 min
- Time of mean peak plasma level of d-amphetamine (stimulant abusers; IV): 5 min
- Time of mean peak responses (stimulant abusers; IV): 15 min
- Mean maximum response on Subject Liking VAS vs placebo (stimulant abusers; [6]): significantly greater than placebo
- Subjects (of 9) who would take the treatment again (stimulant abusers; [6]): Six
- Mean peak plasma level of d-amphetamine (stimulant abusers; stimulant abusers, IV over 2 minutes, L-lysine-d-amphetamine 50 mg): 77.7 ng/mL
- DAP % Change (anesthetized dog; iv 0.202 mg/kg, Time 0): 0%
- LVP % Change (anesthetized dog; iv 0.202 mg/kg, Time 0): 0%
- MAP % Change (anesthetized dog; iv 0.202 mg/kg, Time 0): 0%
- MAP mean arterial pressure (anesthetized dog; iv 0.202 mg/kg, Time 0): 84 mmHg
- SAP % Change (anesthetized dog; iv 0.202 mg/kg, Time 0): 0%
- SAP systolic arterial pressure (anesthetized dog; iv 0.202 mg/kg, Time 0): 111 mmHg
- DAP % Change (anesthetized dog; iv 0.202 mg/kg, Time 5): 117%
- LVP % Change (anesthetized dog; iv 0.202 mg/kg, Time 5): 107%
- MAP % Change (anesthetized dog; iv 0.202 mg/kg, Time 5): 109%
- MAP mean arterial pressure (anesthetized dog; iv 0.202 mg/kg, Time 5): 176 mmHg
- SAP % Change (anesthetized dog; iv 0.202 mg/kg, Time 5): 97%
- SAP systolic arterial pressure (anesthetized dog; iv 0.202 mg/kg, Time 5): 218 mmHg
- DAP % Change (anesthetized dog; iv 0.202 mg/kg, Time 15): 45%
- LVP % Change (anesthetized dog; iv 0.202 mg/kg, Time 15): 52%
- MAP % Change (anesthetized dog; iv 0.202 mg/kg, Time 15): 49%
- MAP mean arterial pressure (anesthetized dog; iv 0.202 mg/kg, Time 15): 125 mmHg
- SAP % Change (anesthetized dog; iv 0.202 mg/kg, Time 15): 52%
- SAP systolic arterial pressure (anesthetized dog; iv 0.202 mg/kg, Time 15): 168 mmHg
- DAP % Change (anesthetized dog; iv 0.202 mg/kg, Time 25): 30%
- LVP % Change (anesthetized dog; iv 0.202 mg/kg, Time 25): 37%
- MAP % Change (anesthetized dog; iv 0.202 mg/kg, Time 25): 31%
- MAP mean arterial pressure (anesthetized dog; iv 0.202 mg/kg, Time 25): 110 mmHg
- SAP % Change (anesthetized dog; iv 0.202 mg/kg, Time 25): 34%
- SAP systolic arterial pressure (anesthetized dog; iv 0.202 mg/kg, Time 25): 148 mmHg
- DAP % Change (anesthetized dog; iv 0.202 mg/kg, Time 30): 20%
- LVP % Change (anesthetized dog; iv 0.202 mg/kg, Time 30): 30%
- MAP % Change (anesthetized dog; iv 0.202 mg/kg, Time 30): 23%
- MAP mean arterial pressure (anesthetized dog; iv 0.202 mg/kg, Time 30): 103 mmHg
- SAP % Change (anesthetized dog; iv 0.202 mg/kg, Time 30): 26%
- SAP systolic arterial pressure (anesthetized dog; iv 0.202 mg/kg, Time 30): 140 mmHg
- DAP % Change (anesthetized dog; iv 0.404 mg/kg, Time 0): 0%
- LVP % Change (anesthetized dog; iv 0.404 mg/kg, Time 0): 0%
- MAP % Change (anesthetized dog; iv 0.404 mg/kg, Time 0): 0%
- MAP mean arterial pressure (anesthetized dog; iv 0.404 mg/kg, Time 0): 101 mmHg
- SAP % Change (anesthetized dog; iv 0.404 mg/kg, Time 0): 0%
- SAP systolic arterial pressure (anesthetized dog; iv 0.404 mg/kg, Time 0): 139 mmHg
- DAP % Change (anesthetized dog; iv 0.404 mg/kg, Time 5): 88%
- LVP % Change (anesthetized dog; iv 0.404 mg/kg, Time 5): 79%
- MAP % Change (anesthetized dog; iv 0.404 mg/kg, Time 5): 85%
- MAP mean arterial pressure (anesthetized dog; iv 0.404 mg/kg, Time 5): 187 mmHg
- SAP % Change (anesthetized dog; iv 0.404 mg/kg, Time 5): 73%
- SAP systolic arterial pressure (anesthetized dog; iv 0.404 mg/kg, Time 5): 240 mmHg
- DAP % Change (anesthetized dog; iv 0.404 mg/kg, Time 15): 44%
- LVP % Change (anesthetized dog; iv 0.404 mg/kg, Time 15): 43%
- MAP % Change (anesthetized dog; iv 0.404 mg/kg, Time 15): 43%
- MAP mean arterial pressure (anesthetized dog; iv 0.404 mg/kg, Time 15): 145 mmHg
- SAP % Change (anesthetized dog; iv 0.404 mg/kg, Time 15): 39%
- SAP systolic arterial pressure (anesthetized dog; iv 0.404 mg/kg, Time 15): 193 mmHg
- DAP % Change (anesthetized dog; iv 0.404 mg/kg, Time 25): 17%
- LVP % Change (anesthetized dog; iv 0.404 mg/kg, Time 25): 26%
- MAP % Change (anesthetized dog; iv 0.404 mg/kg, Time 25): 20%
- MAP mean arterial pressure (anesthetized dog; iv 0.404 mg/kg, Time 25): 122 mmHg
- SAP % Change (anesthetized dog; iv 0.404 mg/kg, Time 25): 19%
- SAP systolic arterial pressure (anesthetized dog; iv 0.404 mg/kg, Time 25): 166 mmHg
- DAP % Change (anesthetized dog; iv 0.404 mg/kg, Time 30): 11%
- LVP % Change (anesthetized dog; iv 0.404 mg/kg, Time 30): 22%
- MAP % Change (anesthetized dog; iv 0.404 mg/kg, Time 30): 16%
- MAP mean arterial pressure (anesthetized dog; iv 0.404 mg/kg, Time 30): 117 mmHg
- SAP % Change (anesthetized dog; iv 0.404 mg/kg, Time 30): 16%
- SAP systolic arterial pressure (anesthetized dog; iv 0.404 mg/kg, Time 30): 160 mmHg
- DAP % Change (anesthetized dog; iv 2.02 mg/kg, Time 0): 0%
- LVP % Change (anesthetized dog; iv 2.02 mg/kg, Time 0): 0%
- MAP % Change (anesthetized dog; iv 2.02 mg/kg, Time 0): 0%
- MAP mean arterial pressure (anesthetized dog; iv 2.02 mg/kg, Time 0): 115 mmHg
- SAP % Change (anesthetized dog; iv 2.02 mg/kg, Time 0): 0%
- SAP systolic arterial pressure (anesthetized dog; iv 2.02 mg/kg, Time 0): 158 mmHg
- DAP % Change (anesthetized dog; iv 2.02 mg/kg, Time 5): 48%
- LVP % Change (anesthetized dog; iv 2.02 mg/kg, Time 5): 40%
- MAP % Change (anesthetized dog; iv 2.02 mg/kg, Time 5): 47%
- MAP mean arterial pressure (anesthetized dog; iv 2.02 mg/kg, Time 5): 169 mmHg
- SAP % Change (anesthetized dog; iv 2.02 mg/kg, Time 5): 44%
- SAP systolic arterial pressure (anesthetized dog; iv 2.02 mg/kg, Time 5): 228 mmHg
- DAP % Change (anesthetized dog; iv 2.02 mg/kg, Time 15): 23%
- LVP % Change (anesthetized dog; iv 2.02 mg/kg, Time 15): 24%
- MAP % Change (anesthetized dog; iv 2.02 mg/kg, Time 15): 23%
- MAP mean arterial pressure (anesthetized dog; iv 2.02 mg/kg, Time 15): 142 mmHg
- SAP % Change (anesthetized dog; iv 2.02 mg/kg, Time 15): 24%
- SAP systolic arterial pressure (anesthetized dog; iv 2.02 mg/kg, Time 15): 196 mmHg
- DAP % Change (anesthetized dog; iv 2.02 mg/kg, Time 25): 17%
- LVP % Change (anesthetized dog; iv 2.02 mg/kg, Time 25): 19%
- MAP % Change (anesthetized dog; iv 2.02 mg/kg, Time 25): 17%
- MAP mean arterial pressure (anesthetized dog; iv 2.02 mg/kg, Time 25): 135 mmHg
- SAP % Change (anesthetized dog; iv 2.02 mg/kg, Time 25): 20%
- SAP systolic arterial pressure (anesthetized dog; iv 2.02 mg/kg, Time 25): 189 mmHg
- DAP % Change (anesthetized dog; iv 2.02 mg/kg, Time 30): 13%
- LVP % Change (anesthetized dog; iv 2.02 mg/kg, Time 30): 16%
- MAP % Change (anesthetized dog; iv 2.02 mg/kg, Time 30): 12%
- MAP mean arterial pressure (anesthetized dog; iv 2.02 mg/kg, Time 30): 129 mmHg
- SAP % Change (anesthetized dog; iv 2.02 mg/kg, Time 30): 16%
- SAP systolic arterial pressure (anesthetized dog; iv 2.02 mg/kg, Time 30): 183 mmHg
